The test system of series [1] is human erythrocytes. As for the experimental part:
To obtain erythrocytes, heparinized blood was centrifuged for 10 min at 300 g and 4°C. The supernatant liquid was removed, 10 ml of cooled PBS containing 4 mM of EDTA (pH 7.4) was added to the precipitate, and the mixture was centrifuged for 10 min under the same conditions. Then, red blood cells were washed three more times with cooled PBS. The sedimented red blood cells were used for the hemolytic test.
(§1) Here, [MEC A] and [MEC B] are the minimum effective concentrations (MEC) of substances A and B, when they are used alone. […] [A] and [B] are respective concentrations of substances A and B in their combination, where the same statistically significant difference is detected. A non-parametric Mann-Whitney U-test (p < 0.05 or p < 0.01) was used for the mentioned statistical comparison.
(§2) We have chosen the same intervals as that of FICI to determine synergy, additivity, independent action, and antagonism based on the minimal FECI values. However, in case of cytotoxic or hemolytic effect we were interested mainly in testing the possibility of additive or synergistic interaction itself, and not in assessing the exact magnitude of such interaction. Thus, in contrast to the “checkerboard titration” method used for combined antimicrobial activity investigation, studying the combined cytotoxic effect, we considered only two combinations of concentrations for the substances A and B in the mixture: • (½ MEC A + ½ MEC B), which, if found effective, provides the FECI value of 1 (the threshold value for additivity); • (¼ MEC A + ¼ MEC B), which, if found effective, provides the FECI value of 0.5 (the threshold value for synergetic interaction).
(§3) When action on tumor cells was tested in combination with antitumor antibiotic the lower concentrations up to ( 1/16 MEC A + 1/16 MEC B) as in checkerboard titration were additionally examined to assess the magnitude of synergistic effect more precisely. The final conclusion was made based on the three independent experiments.
Two hundred eighty microliters of erythrocyte precipitate obtained as described in section Eukaryotic Cells was added into the sterile 15 ml tube and its volume was adjusted to 10 ml with cooled PBS. Using 0.5 ml plastic tubes, 3 μl of the tested compound serially diluted in PBS or of the combination of two compounds were mixed with the 27 μl of the prepared erythrocyte suspension for each sample. For positive control (100% lysis of erythrocytes) 3 μl of the detergent (10% Triton X-100 solution in PBS) were added to the 27 μl of the erythrocyte suspension, and for negative control (0% lysis of erythrocytes) 3 μl of the PBS were used instead of any cell-damaging compound. […] After incubation, the hemolysis process was stopped by the addition of 75 μl of cooled PBS. The samples were centrifuged at 5,000 g and 4°C for 4 min. The optical density of the supernatants was measured at a wavelength of 540 nm using SpectraMax 250 Spectrophotometer (Molecular Devices, USA). The experiments were repeated three times. In each experiment all the test or control samples were made in triplicates. The percentage of hemolysis of erythrocytes was assessed by the following formula:
where ODsample, OD0%lysis, and OD100%lysis are values of the OD at 540 nm for the test sample, negative (0% lysis) control, and positive (100% lysis) control, respectively. However, due to the design of the study of combined action, described above in Combined Hemolytic or Cytotoxic Action, the obtained ODsample and OD0%lysis values were rather used to determine MECs and FECI by the Mann-Whitney U-test (p < 0.05, n1, n2 = 3).

Series [2] relates to K562. The settings on record: K562 tumor cells (doxorubicin-sensitive); MTT, 24 h. As for the experimental part:
The human erythromyeloid leukemia cell line K562 was obtained from the collection of the Institute of Cytology RAS (Saint Petersburg, Russia) and cultured in RPMI-1640 medium containing gentamicin (100 μg/ml) and 10% of fetal bovine serum at 37°C, 5% CO2. […] Drug resistance was maintained by monthly selection with the antibiotic (2 μg/ml in the culturing medium). Doxorubicin was removed from the medium 3 days prior to beginning any experiments. Before the testing K562 cells were washed twice with PBS and resuspended in RPMI-1640 in the same way as the other cell types.
We calculated Fractional Effective Concentration Index (FECI), which could be seen as a particular case of the interaction index (I) proposed by Berenbaum ([1977]) or of the similar combination index (CI) proposed by Chou and Talalay ([1983]), according to the equation below: […]
as §1, §2, §3
Standard MTT-test (Mosmann, [1983]) was used for the examination of the cytotoxic activity of antimicrobial compounds and their combinations toward varied eukaryotic cells. Briefly, cell suspensions in RPMI-1640 prepared as described in Eukaryotic Cells were dispensed into the 96-well microplates (2 × 10^5 cells/well). Then, serial dilutions of AMPs, or other antibiotic compounds, or their mixtures in RPMI-1640 were added. In positive controls (100% cell survival) the according volume of RPMI-1640 without test substances was added instead. The final volume in each well was 100 μl. Negative controls (0% cell survival) were made with 100 μl of the sterile RPMI-1640. The plates were incubated at 37°C under 5% CO2 for 24 h. Four hours before the end of incubation, 10 μl of metabolic marker MTT−3-(4,5-dimethylthiazol-2-yl)-2,5-diphenyltetrazolium bromide (5 mg/ml, diluted in PBS) was added to each well. Incubation was stopped by adding 90 μl of isopropanol containing 0.04 M HCl. Content of the wells was thoroughly mixed, so that the formazan crystals, formed in case of the reduction of MTT in presence of actively metabolizing cells, were fully dissolved.

From paper PMC6503114, “Application of Antimicrobial Peptides of the Innate Immune System in Combination With Conventional Antibiotics—A Novel Way to Combat Antibiotic Resistance?” (Frontiers in Cellular and Infection Microbiology, 2019) come the findings set out here.

Like-named read-outs stand apart in the source and are kept apart here. Where no end group is shown, it is not given here.

Consider `CNC(C)C1CCC(N)C(OC2C(N)CC(N)C(OC3OCC(C)(O)C(NC)C3O)C2O)O1` (stereo not drawn) [Gentamicin], for which, in series [1] (human, 30 min), the “MEC of hemolysis of human erythrocytes” value was >50 [100] μM. Also, the “MEC of cytotoxic action” value in series [2] came to 50 µM.
As to `CC[C@H](C)[C@H](NC(=O)[C@H](CCCCN)NC(=O)[C@H](CCC(=O)O)NC(=O)[C@H](CCCCN)NC(=O)[C@H](CO)NC(=O)[C@H](CCCCN)NC(=O)[C@H](CCCNC(=N)N)NC(=O)[C@H](Cc1ccccc1)NC(=O)[C@H](Cc1ccccc1)NC(=O)[C@H](CC(=O)O)NC(=O)CNC(=O)[C@H](CC(C)C)NC(=O)[C@@H](N)CC(C)C)C(=O)NCC(=O)N[C@@H](CCCCN)C(=O)N[C@@H](CCC(=O)O)C(=O)N[C@@H](Cc1ccccc1)C(=O)N[C@@H](CCCCN)C(=O)N[C@@H](CCCNC(=N)N)C(=O)N[C@H](C(=O)N[C@H](C(=O)N[C@@H](CCC(N)=O)C(=O)N[C@@H](CCCNC(=N)N)C(=O)N[C@H](C(=O)N[C@@H](CCCCN)C(=O)N[C@@H](CC(=O)O)C(=O)N[C@@H](Cc1ccccc1)C(=O)N[C@@H](CC(C)C)C(=O)N[C@@H](CCCNC(=N)N)C(=O)N[C@@H](CC(N)=O)C(=O)N[C@@H](CC(C)C)C(=O)N[C@H](C(=O)N1CCC[C@H]1C(=O)N[C@@H](CCCNC(=N)N)C(=O)N[C@H](C(=O)N[C@@H](CCC(=O)O)C(=O)N[C@@H](CO)C(=O)O)[C@@H](C)O)C(C)C)[C@@H](C)CC)C(C)C)[C@@H](C)CC` [LL-37], the “MEC of hemolysis of human erythrocytes” value in series [1] (30 min, 37°C, no blood serum) stood at 5.0 µM. The “MEC of cytotoxic action” value in series [2] was 5.0 µM.
On to “RFRLPFRRPPIRIHPPPFYPPFRRFL-NH2 (C-terminus assumed) [ChBac3.4]”, for which the “MEC of hemolysis of human erythrocytes” value in series [1] was >50 [100] μM. In addition, the “MEC of cytotoxic action” value in series [2] was 20 µM.
Turning to `Cc1onc(-c2ccccc2)c1C(=O)N[C@@H]1C(=O)N2[C@@H]1SC(C)(C)[C@@H]2C(=O)O` [Oxacillin], the “hemolytic action (in words)” value in series [1] is on record as “slight hemolityc action”. For the same compound, in series [1] (human, 30 min), the “MEC of hemolysis of human erythrocytes” value was found to be 25 µM. Moreover, the “MEC of cytotoxic action” value in series [2] is >50 [100] μM.
As for Polymyxin B, the “MEC of hemolysis of human erythrocytes” value in series [1] (30 min, 37°C, no blood serum) was >50 [100] μM. For the same compound, the “MEC of cytotoxic action” value in series [2] was determined as 25 µM.
Take `CO[C@H]1/C=C/O[C@@]2(C)Oc3c(C)c(O)c4c(O)c(c(/C=N/N5CCN(C)CC5)c(O)c4c3C2=O)NC(=O)/C(C)=C\C=C\[C@H](C)[C@H](O)[C@@H](C)[C@@H](O)[C@@H](C)[C@H](OC(C)=O)[C@@H]1C` [Rifampicin]: in series [1], the “hemolytic action (in words)” value is recorded as “slight hemolityc action”. The “MEC of hemolysis of human erythrocytes” value in series [1] (human, 30 min) came to 20 µM. The “MEC of cytotoxic action” value in series [2] was >20 [40] μM.
Regarding “Lysozyme: egg white lysozyme, antimicrobial protein, from BioChemica”, the “MEC of hemolysis of human erythrocytes” value in series [1] was >50 [100] μM. Moreover, in series [2], the “MEC of cytotoxic action” value is >50 [100] μM.
Consider `CC1COc2c(N3CCN(C)CC3)c(F)cc3c(=O)c(C(=O)O)cn1c23` (stereo not drawn) [Ofloxacin], for which, in series [1] (human, 30 min), the “MEC of hemolysis of human erythrocytes” value is >50 [100] μM. The “MEC of cytotoxic action” value in series [2] is >50 [100] μM.
